Results taken from patent publication US20070086949A1, “Method of bioimaging using nanocrystals of fluorescent dyes” (priority 2005, published 2007).

Tests used:
[1] = Size of TPB and perylene nanocrystals in water dispersion; format: physicochemical
Experimental: Briefly, 200 μl of dye acetone solution (10 mM concentration ) was injected into magnetically stirring water (10 ml). The average size of nanoparticle was estimated to vary from 50 nm to 200 nm depending on the concentration of original organic solution and water temperature. A homogenous dispersion of the dye nanocrystals without any noticeable aggregation or clumps was produced. Optical properties of the prepared nanocrystals were studied using UV-Visible and fluorescence spectroscopy. UV-visible absorption spectra as well as the fluorescence spectra of the nanocrystals were acquired using a Shimadzu 3600 UV spectrometer and a Jobin-Yvon Spectramax fluorimeter. Changes in absorption spectra as well as fluorescence intensity changes (such as quenching) were studied by comparing the spectra of nanocrystals in water with that of organic solution.
For this experiment, perylene was dissolved on DMSO at 1 mM, 10 mM or 100 mM. The nanocrystals were prepared as described in Example 1 by adding to water at 4° C. or 80° C.

[2] = system: human cervix carcinoma cell line Hela; assay: Confocal imaging of HeLa cells incubated with dye nanocrystal water dispersion; format: cell-based; details: confocal microscopy
Experimental: For cellular imaging, human cervix carcinoma cell line Hela was incubated with the prepared dye dispersion. The cell culture and imaging conditions are described in detail here. Human cervical carcinoma cell line (HeLa) was maintained in Dulbecco's modified eagle medium with 10% FBS according to the manufacturers instructions (American Type Culture Collection, Manassas, Va.). To study the uptake and imaging of HPPH nanocrystals, the cells were trypsinized and resuspended in the corresponding suitable media at a concentration of around 7.5×10^5/ml. 60 μl of this suspension was transferred to each 35 mm culture plate and 2 ml of the corresponding full medium was added. These plates were then placed in an incubator at 37° C. with 5% CO2 (VWR Scientific, model 2400). After 36 hours of incubation, the cells (about 60% confluency) were rinsed with PBS, and 2 ml of the corresponding fresh media was added to the plates. Finally, 50 μl of dye nanocrystals was added and mixed properly. Plates were returned to the incubator (37° C., 5% CO2) for the required incubation period. 50 μl of dye/Tween80 micelles of same dye concentration was used as control and separate culture plates were treated and incubated for the same time period as in the case of nanocrystals. […]

Compound: c1cc2cccc3c4cccc5cccc(c(c1)c23)c54 [perylene]
- size of the nanocrystals versus concentration of the dye ([1]; perylene in DMSO at 1 mM, 10 mM or 100 mM, added to water at 4° C. or 80° C.): increase with increasing concentration
- size of the nanocrystals versus water temperature ([1]; water at 4° C. or 80° C.): greater at the higher water temperature
- intracellular staining pattern [2]: staining the entire cytoplasm with higher dye accumulation in vescicular bodies such as lysosomes
